In ChEMBL document CHEMBL5537147, “Development of membrane-targeting TPP+-chloramphenicol conjugates to combat methicillin-resistant staphylococcus aureus (MRSA) infections” (Eur J Med Chem, 2024):

Legend:
Pseudomonas aeruginosa [1] = experiment: Antibacterial activity against Pseudomonas aeruginosa 535 assessed as inhibition of bacterial growth incubated for 16 to 18 hrs by CLSI based two-fold serial dilution method; format: functional; conditions: time 16-18 hrs
Acinetobacter baumannii [2] = experiment: Antibacterial activity against Acinetobacter baumannii 1310 assessed as inhibition of bacterial growth incubated for 16 to 18 hrs by CLSI based two-fold serial dilution method; format: functional; conditions: time 16-18 hrs
Acinetobacter baumannii [3] = experiment: Antibacterial activity against Acinetobacter baumannii 1309 assessed as inhibition of bacterial growth incubated for 16 to 18 hrs by CLSI based two-fold serial dilution method; format: functional; conditions: time 16-18 hrs
Staphylococcus aureus [4] = experiment: Antibacterial activity against methicillin-resistant Staphylococcus aureus USA300 assessed as inhibition of bacterial growth incubated for 16 to 18 hrs by CLSI based two-fold serial dilution method; format: functional; conditions: time 16-18 hrs
Staphylococcus aureus [5] = experiment: Antibacterial activity against methicillin-resistant Staphylococcus aureus 3390 assessed as inhibition of bacterial growth incubated for 16 to 18 hrs by CLSI based two-fold serial dilution method; format: functional; conditions: time 16-18 hrs
[6] = Cytotoxicity against human L02 cells assessed as inhibition of cell growth incubated for 24 hrs by MTT assay; format: toxicity, cell-based
Staphylococcus aureus [7] = experiment: Antibacterial activity against methicillin-resistant Staphylococcus aureus 3392 assessed as inhibition of bacterial growth incubated for 16 to 18 hrs by CLSI based two-fold serial dilution method; format: functional; conditions: time 16-18 hrs
Pseudomonas aeruginosa [8] = experiment: Antibacterial activity against Pseudomonas aeruginosa 408 assessed as inhibition of bacterial growth incubated for 16 to 18 hrs by CLSI based two-fold serial dilution method; format: functional; conditions: time 16-18 hrs
Staphylococcus aureus [9] = experiment: Antibacterial activity against methicillin-resistant Staphylococcus aureus 330041 assessed as inhibition of bacterial growth incubated for 16 to 18 hrs by CLSI based two-fold serial dilution method; format: functional; conditions: time 16-18 hrs

In the case of `O=C(O)CCCCCn1cc(C[P+](c2ccc(F)cc2)(c2ccc(F)cc2)c2ccc(F)cc2)nn1.[Br-]`, the MIC (Pseudomonas aeruginosa [1]) is reported as > 64 µg/mL, the MIC (Acinetobacter baumannii [2]) is reported as > 64 µg/mL and the MIC (Acinetobacter baumannii [3]) is reported as > 64 µg/mL. The MIC (Staphylococcus aureus [4]) was > 64 µg/mL, the MIC (Staphylococcus aureus [5]) was > 64 µg/mL and the IC50 at 24 h [6] was > 64 µg/mL. For the same molecule, the MIC (Staphylococcus aureus [7]) was > 64 µg/mL, the MIC (Pseudomonas aeruginosa [8]) was > 64 µg/mL and the MIC (Staphylococcus aureus [9]) was > 64 µg/mL.
With `Br.O=C(CCC[P+](c1ccccc1)(c1ccccc1)c1ccccc1)OC[C@H](NC(=O)C(Cl)Cl)[C@H](O)c1ccc([N+](=O)[O-])cc1` the MIC (Pseudomonas aeruginosa [1]) was > 64 µg/mL, the MIC (Acinetobacter baumannii [2]) was > 64 µg/mL and the MIC (Acinetobacter baumannii [3]) was > 64 µg/mL. The MIC (Staphylococcus aureus [4]) was 16 µg/mL, the MIC (Staphylococcus aureus [5]) was 32 µg/mL and the IC50 at 24 h [6] was > 64 µg/mL. For the same molecule, the MIC (Staphylococcus aureus [7]) was 32 µg/mL, the MIC (Pseudomonas aeruginosa [8]) was > 64 µg/mL and the MIC (Staphylococcus aureus [9]) was 32 µg/mL.
In the case of `O=C(O)CCCCCCCCC[P+](c1ccccc1)(c1ccccc1)c1ccccc1.[Br-]`, the MIC (Pseudomonas aeruginosa [1]) is reported as > 64 µg/mL, the MIC (Acinetobacter baumannii [2]) is reported as > 64 µg/mL and the MIC (Acinetobacter baumannii [3]) is reported as > 64 µg/mL. For the same molecule, the MIC (Staphylococcus aureus [4]) was > 64 µg/mL, the MIC (Staphylococcus aureus [5]) was > 64 µg/mL and the IC50 at 24 h [6] was > 64 µg/mL. The MIC (Staphylococcus aureus [7]) was > 64 µg/mL, the MIC (Pseudomonas aeruginosa [8]) was > 64 µg/mL and the MIC (Staphylococcus aureus [9]) was > 64 µg/mL.
In the case of `O=C(O)CC[P+](c1ccccc1)(c1ccccc1)c1ccccc1.[Br-]`, the MIC (Pseudomonas aeruginosa [1]) is reported as > 64 µg/mL, the MIC (Acinetobacter baumannii [2]) is reported as > 64 µg/mL and the MIC (Acinetobacter baumannii [3]) is reported as > 64 µg/mL. For the same molecule, the MIC (Staphylococcus aureus [4]) was > 64 µg/mL, the MIC (Staphylococcus aureus [5]) was > 64 µg/mL and the IC50 at 24 h [6] was > 64 µg/mL. For the same molecule, the MIC (Staphylococcus aureus [7]) was > 64 µg/mL, the MIC (Pseudomonas aeruginosa [8]) was > 64 µg/mL and the MIC (Staphylococcus aureus [9]) was > 64 µg/mL.
With `Br.O=C(CCCCCCCCC[P+](c1ccc(C(F)(F)F)cc1)(c1ccc(C(F)(F)F)cc1)c1ccc(C(F)(F)F)cc1)OC[C@H](NC(=O)C(Cl)Cl)[C@H](O)c1ccc([N+](=O)[O-])cc1` the MIC (Pseudomonas aeruginosa [1]) was > 64 µg/mL, the MIC (Acinetobacter baumannii [2]) was > 64 µg/mL and the MIC (Acinetobacter baumannii [3]) was > 64 µg/mL. For the same molecule, the MIC (Staphylococcus aureus [4]) was 1 µg/mL, the MIC (Staphylococcus aureus [5]) was 1 µg/mL and the IC50 at 24 h [6] was > 32 µg/mL. For the same molecule, the MIC (Staphylococcus aureus [7]) was 1 µg/mL, the MIC (Pseudomonas aeruginosa [8]) was > 64 µg/mL and the MIC (Staphylococcus aureus [9]) was 1 µg/mL.
In the case of `COc1ccc([P+](CCCCCCCCCC(=O)O)(c2ccc(OC)cc2)c2ccc(OC)cc2)cc1.[Br-]`, the MIC (Pseudomonas aeruginosa [1]) is reported as > 64 µg/mL, the MIC (Acinetobacter baumannii [2]) is reported as 64 µg/mL and the MIC (Acinetobacter baumannii [3]) is reported as 64 µg/mL. The MIC (Staphylococcus aureus [4]) was 32 µg/mL, the MIC (Staphylococcus aureus [5]) was 16 µg/mL and the IC50 at 24 h [6] was 13.5 µg/mL. For the same molecule, the MIC (Staphylococcus aureus [7]) was 32 µg/mL, the MIC (Pseudomonas aeruginosa [8]) was > 64 µg/mL and the MIC (Staphylococcus aureus [9]) was 32 µg/mL.
In the case of `O=C(O)CCCCCCCCC[P+](c1ccc(C(F)(F)F)cc1)(c1ccc(C(F)(F)F)cc1)c1ccc(C(F)(F)F)cc1.[Br-]`, the MIC (Pseudomonas aeruginosa [1]) is reported as > 64 µg/mL, the MIC (Acinetobacter baumannii [2]) is reported as > 64 µg/mL and the MIC (Acinetobacter baumannii [3]) is reported as > 64 µg/mL. For the same molecule, the MIC (Staphylococcus aureus [4]) was > 64 µg/mL, the MIC (Staphylococcus aureus [5]) was > 64 µg/mL and the IC50 at 24 h [6] was > 64 µg/mL. The MIC (Staphylococcus aureus [7]) was > 64 µg/mL, the MIC (Pseudomonas aeruginosa [8]) was > 64 µg/mL and the MIC (Staphylococcus aureus [9]) was > 64 µg/mL.
In the case of `Cc1ccc([P+](CCCCCCCCCC(=O)O)(c2ccc(C)cc2)c2ccc(C)cc2)cc1.[Br-]`, the MIC (Pseudomonas aeruginosa [1]) is reported as > 64 µg/mL, the MIC (Acinetobacter baumannii [2]) is reported as > 64 µg/mL and the MIC (Acinetobacter baumannii [3]) is reported as > 64 µg/mL. For the same molecule, the MIC (Staphylococcus aureus [4]) was > 64 µg/mL, the MIC (Staphylococcus aureus [5]) was > 64 µg/mL and the IC50 at 24 h [6] was 23.1 µg/mL. For the same molecule, the MIC (Staphylococcus aureus [7]) was > 64 µg/mL, the MIC (Pseudomonas aeruginosa [8]) was > 64 µg/mL and the MIC (Staphylococcus aureus [9]) was > 64 µg/mL.
In the case of `O=C(O)CCCCC[P+](c1ccccc1)(c1ccccc1)c1ccccc1.[Br-]`, the MIC (Pseudomonas aeruginosa [1]) is reported as > 64 µg/mL, the MIC (Acinetobacter baumannii [2]) is reported as > 64 µg/mL and the MIC (Acinetobacter baumannii [3]) is reported as > 64 µg/mL. The MIC (Staphylococcus aureus [4]) was > 64 µg/mL, the MIC (Staphylococcus aureus [5]) was > 64 µg/mL and the IC50 at 24 h [6] was > 64 µg/mL. For the same molecule, the MIC (Staphylococcus aureus [7]) was > 64 µg/mL, the MIC (Pseudomonas aeruginosa [8]) was > 64 µg/mL and the MIC (Staphylococcus aureus [9]) was > 64 µg/mL.
In the case of `Br.COc1ccc([P+](CCCCCCCCCC(=O)OC[C@H](NC(=O)C(Cl)Cl)[C@H](O)c2ccc([N+](=O)[O-])cc2)(c2ccc(OC)cc2)c2ccc(OC)cc2)cc1`, the MIC (Pseudomonas aeruginosa [1]) is reported as > 64 µg/mL, the MIC (Acinetobacter baumannii [2]) is reported as > 64 µg/mL and the MIC (Acinetobacter baumannii [3]) is reported as > 64 µg/mL. The MIC (Staphylococcus aureus [4]) was 2 µg/mL, the MIC (Staphylococcus aureus [5]) was 2 µg/mL and the IC50 at 24 h [6] was 23.5 µg/mL. For the same molecule, the MIC (Staphylococcus aureus [7]) was 2 µg/mL, the MIC (Pseudomonas aeruginosa [8]) was > 64 µg/mL and the MIC (Staphylococcus aureus [9]) was 1 µg/mL.
With `O=C(O)c1cn(C2CC2)c2cc(N3CCNCC3)c(F)cc2c1=O` [CIPROFLOXACIN] the IC50 at 24 h [6] was > 64 µg/mL.
